How the values were obtained:
[1] = target: T1, hTLR9 (Homo sapiens, UniProt Q9NR96, H530R/Q688R); assay: NF-kappa B luciferase activation in 293T cells transiently transfected with hTLR9; format: cell-based; settings: hTLR9-transfected 293T cells, positive control for transfection
T1 construct: 293-TLR9-Luc cells contain a genomic copy of the hTLR9 open reading frame and the NF-kappa B-luciferase cassette; expressed in transfected cells; host or cells: 293-TLR9-Luc (stably transfected human embryo kidney 293 cells)
T1 sequence (Q9NR96 26-1032 H530R/Q688R): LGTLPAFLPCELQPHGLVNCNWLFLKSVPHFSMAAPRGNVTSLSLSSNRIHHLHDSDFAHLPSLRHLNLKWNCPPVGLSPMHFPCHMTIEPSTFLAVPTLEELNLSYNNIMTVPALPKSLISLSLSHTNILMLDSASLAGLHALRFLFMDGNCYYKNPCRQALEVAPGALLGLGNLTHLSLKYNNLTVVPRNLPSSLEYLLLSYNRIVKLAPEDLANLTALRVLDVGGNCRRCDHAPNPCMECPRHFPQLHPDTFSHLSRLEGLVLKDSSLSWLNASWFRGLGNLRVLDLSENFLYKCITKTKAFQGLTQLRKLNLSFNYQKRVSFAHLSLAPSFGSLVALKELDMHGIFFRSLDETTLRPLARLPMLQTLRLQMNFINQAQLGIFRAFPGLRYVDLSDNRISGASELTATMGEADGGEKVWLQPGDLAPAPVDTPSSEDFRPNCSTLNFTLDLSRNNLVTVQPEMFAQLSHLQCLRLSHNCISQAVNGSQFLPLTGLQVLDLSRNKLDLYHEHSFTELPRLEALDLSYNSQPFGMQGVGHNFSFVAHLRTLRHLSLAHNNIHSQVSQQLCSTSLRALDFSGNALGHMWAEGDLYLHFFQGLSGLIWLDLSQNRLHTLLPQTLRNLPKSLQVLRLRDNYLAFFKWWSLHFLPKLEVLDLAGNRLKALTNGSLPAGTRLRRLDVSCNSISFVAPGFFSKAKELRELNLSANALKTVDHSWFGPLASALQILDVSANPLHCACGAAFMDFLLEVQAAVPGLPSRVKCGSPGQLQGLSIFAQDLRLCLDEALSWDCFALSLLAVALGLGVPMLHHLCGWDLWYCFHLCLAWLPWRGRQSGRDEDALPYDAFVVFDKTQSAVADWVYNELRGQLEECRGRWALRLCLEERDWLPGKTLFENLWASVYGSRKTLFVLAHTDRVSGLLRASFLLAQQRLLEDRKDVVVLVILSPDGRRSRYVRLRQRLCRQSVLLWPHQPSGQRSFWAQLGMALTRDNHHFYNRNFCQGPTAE
Procedure: Cells used for transfections were 293T (human embryo kidney cells, T-antigen transfected) or 293-TLR9-Luc (stable transfectants, human embryo kidney cells expressing the human TLR9 receptor and containing a genomic NF-kappa B-luciferase cassette).
Transfections were performed in six-well plates. Cells were plated the day before transfection at 4×10^5/well in DMEM+10% FCS.
Constructs: TLR cDNAs were cloned into pcDNA3.1. NF-kappa B activation was measured by using an 5× NF-kappa B-Luciferase construct (Stratagene). Transfection efficiency was determined by using a beta-galactosidase (beta-gal) reporter construct (p beta-Gal-Control, Clontech).
Stimulation was performed 24 h after transfection. Medium of the cells was reduced to 1 ml (without medium change) and cells were stimulated with indicated amounts of R-848, LPS, ODN 8954, 2006 and IL-1 beta for 16 h.
Cell extracts were prepared by lysing the cells in 100 μl reporter lysis buffer using the freeze-thaw method. NF-kappa B stimulation was measured through luciferase activity (Promega). All data were normalized for beta-gal expression. Stimulation indices were calculated in reference to luciferase activity of medium without addition of ODN.
293T cells, stably transfected with a NF-kappa B-luciferase reporter construct, were transiently transfected with plasmids (pcDNA3.1 constructs) coding for full length hTLR2, hTLR7, hTLR8 and hTLR9. […]

[2] = target: T1, hTLR9; assay: Reconstitution of hTLR9 signaling in 293 fibroblasts (NF-kappa B luciferase, IL-8 ELISA); format: cell-based; settings: 2006 2 μM, LPS 100 ng/ml, FIG. 10
Excerpt: Methods for cloning murine and human TLR9 have been described in pending U.S. patent application Ser. No. 09/954,987, filed Sep. 17, 2001, and published PCT application PCT/US01/29229, the contents of which are incorporated by reference. Human TLR9 cDNA (SEQ ID NO:6, GenBank Accession No. AF245704) and murine TLR9 cDNA (SEQ ID NO:8, GenBank Accession No. AF348140) in pT-Adv vector (from Clontech) were individually cloned into the expression vector pcDNA3.1 (−) from Invitrogen using the EcoRi site. Utilizing a “gain of function” assay it was possible to reconstitute human TLR9 (hTLR9) and murine TLR9 (mTLR9) signaling in CpG-DNA non-responsive human 293 fibroblasts (ATCC, CRL-1573). The expression vectors mentioned above were transfected into 293 fibroblast cells using the calcium phosphate method. […]
Since NF-kappa B activation is central to the IL-1/TLR signal transduction pathway (Medzhitov R et al. (1998) Mol Cell 2:253-258 (1998); Muzio M et al. (1998) J Exp Med 187:2097-101), cells were transfected with hTLR9 or co-transfected with hTLR9 and an NF-kappa B-driven luciferase reporter construct. […] After stimulus with CpG-ODN (2006, 2 μM, […], SEQ ID NO:1), GpC-ODN (2006-GC, 2 μM, […], SEQ ID NO:10), LPS (100 ng/ml) or media, NF-kappa B activation by luciferase readout (8 h, FIG. 10A) or IL-8 production by ELISA (48 h, FIG. 10B) were monitored. […]

CpG ODN 2006
NF-kappa B activation [1]: 3 fold
response of cells expressing hTLR9 (NF-kappa B luciferase 8 h, IL-8 48 h) [2]: responded to CpG-DNA

From patent US20060188913A1, “Methods and products for enhancing immune responses using imidazoquinoline compounds” (University of Iowa Research Foundation, priority 2001, published 2006)
